Data reported in the METLIN SMRT retention time set (Domingo-Almenara et al. 2019).

Assay: gradient 5% acetonitrile 3 min, to 50% in 2 min, to 85% in 15 min, held 3 min, 100 µL/min
Conditions: column: Zorbax Extend-C18 2.1 x 50 mm; eluents: water / acetonitrile, 0.1% formic acid
Method in brief: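 The mobile phases were water and acetonitrile, each with 0.1% formic acid, pumped at 100 μL/min through a Zorbax Extend-C18 column (2.1 × 50 mm, 1.8 μm). Pure standards were injected as mixtures of ~100 molecules and detected by a quadrupole time-of-flight mass spectrometer in positive and negative ionization mode. Retention time came from computationally picked adduct peaks, each inspected by hand.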

Row | SMILES | RP-LC retention time
1 | O=C(NCCc1ccsc1)Nc1ccccc1C(F)(F)F | 842 s
2 | CCOC(=O)c1cnn(-c2ccc(C(=O)NCc3ccco3)cn2)c1C | 804 s
3 | Clc1ccccc1-n1ncc2c(NCc3ccco3)ncnc21 | 719 s
4 | COc1ccccc1CNC(=O)CCc1csc(NC(=O)c2ccc(F)cc2)n1 | 792 s
5 | Cc1ccccc1Nc1c(-c2cccc(Cl)c2)nc2ccc(Cl)cn12 | 1080 s
6 | O=C(Cc1cccs1)N1CCN(c2ccc(-c3noc(C4CC4)n3)cc2)CC1 | 934 s
7 | COc1ccc(NC(=O)c2c[nH]c3ncccc23)c(C)c1 | 657 s
8 | COCCCCC(=NOCCN)c1ccc(C(F)(F)F)cc1 | 734 s
9 | CCCNC(=O)N1CCC(CCOc2ccncc2)CC1 | 571 s
10 | CCN(CC)S(=O)(=O)c1ccc2c(c1)cc(C(=O)NCCc1c[nH]c3ccc(OC)cc13)n2C | 964 s
11 | Cc1ccc(-c2nnc(-c3cccc(S(=O)(=O)NC(C)(C)C)c3)o2)cc1 | 1030 s
12 | Cc1ccc2c(Nc3ccc(Br)cc3)c(C(=O)N3CCOCC3)cnc2n1 | 608 s
13 | CCCc1cc(C2CCCN2C(=O)Nc2ccc(C)cc2)no1 (stereo not drawn) | 946 s
14 | Cc1noc(C)c1CNC(=O)COc1ccc(F)cc1 | 711 s
15 | COc1ccc(OC)c(NC(=O)c2cnn(-c3ccc(Cl)cc3)c2)c1 | 991 s
16 | CCOc1ccc(N2C(=O)CN(C(C)c3ccccc3)[C@H]3CS(=O)(=O)C[C@H]32)cc1 (stereo partly drawn) | 863 s
17 | Cc1cccc(S(=O)(=O)Nc2cc(-c3cn4cccc(C)c4n3)ccc2C)c1 | 695 s
18 | COc1ccc(N(CC(O)CNCCC(C)C)S(=O)(=O)c2ccc(C)cc2)cc1 (stereo not drawn) | 620 s
19 | CCNC(=O)C1CCc2sc(C(=O)N3CCOCC3)cc2C1 (stereo not drawn) | 632 s
20 | CCCN1C(=O)Cc2cc(C(=O)O)ccc21 | 643 s

Row | SMILES | RP-LC retention time
21 | CCCNC(=O)CCc1nc2ccccc2n(CC(=O)NCc2ccccc2)c1=O | 1270 s
22 | COc1ccc(NC(=O)NC2CCN(c3ccc(F)cc3)C2=O)cc1OC (stereo not drawn) | 722 s
23 | COc1cc(CC(=O)N2CCN(c3cc(C(C)C)n4cnnc4n3)CC2)cc(OC)c1 | 635 s
24 | CC(=O)N1CCN(c2nc(-c3ccccc3)c3cc(Br)ccc3n2)CC1 | 1010 s
25 | CCN1CCN(c2c(S(=O)(=O)c3ccc(OC)cc3)cnc3cc(OC)c(OC)cc23)CC1 | 628 s
26 | COCCn1ncc(N2CCC(C(=O)Nc3cc(OC)cc(OC)c3)C2)cc1=O (stereo not drawn) | 684 s
27 | CC(C)c1cc(C(=O)N2Cc3ccc(CN4CCN(C)CC4)cc3C2)c(O)cc1O | 654 s
28 | COc1cc(NC(=O)CCc2nc(-c3ccc(N4CCCC4)cc3)no2)cc(OC)c1 | 1070 s
29 | CCc1nc(-c2csc(S(=O)(=O)N3CCCC(C(=O)Nc4ccc(F)c(Cl)c4)C3)c2)no1 (stereo not drawn) | 1130 s
30 | Cc1ccccc1Nc1c(-c2ccc(Cl)cc2)nc2cccc(C)n12 | 804 s
31 | O=C(NCc1csc(-c2ccccc2)n1)C1CCN(S(=O)(=O)c2ccc(F)c(Cl)c2)CC1 | 987 s
32 | O=C1[C@H]2CN(Cc3cccc(OC(F)(F)F)c3)C[C@H]2C(=O)N1Cc1ccc2c(c1)OCO2 | 969 s
33 | COc1ccc(Cl)cc1NC(=O)N1CCN(c2cc(C)nc(Nc3ccc(C)cc3)n2)CC1 | 798 s
34 | Cc1ccc(NC(=O)N2C[C@H](c3nc(-c4cccnc4)no3)[C@@H](C)C2)cc1 | 820 s
35 | CN(C)S(=O)(=O)NCc1nnnn1C1CCCCC1 | 681 s
36 | Cc1cc(C)nc(SCC(=O)Nc2nc(-c3ccccc3)c(-c3ccccc3)o2)n1 | 1050 s
37 | CCOc1cccc(-c2noc(Cn3c(=O)n(-c4cccc(F)c4)c(=O)c4sccc43)n2)c1 | 1040 s
38 | COc1nc2ccccc2nc1N1CCCC(C(=O)Nc2ccccc2F)C1 (stereo not drawn) | 1140 s
39 | CCOC(=O)c1ccc(NS(=O)(=O)c2cc(-c3c(CC)noc3NC(C)=O)ccc2OC)cc1 | 805 s
40 | CC(C)OC(=O)COC(=O)c1cn(-c2cccc(Cl)c2)c(=O)c2ccccc12 | 1140 s

Row | SMILES | RP-LC retention time
41 | O=C([C@@H]1C[C@H](Oc2ccccc2)CN1C(=O)CCCc1c[nH]c2ccccc12)N1CCCC1 | 865 s
42 | O=S(=O)(Cc1ccc(F)cc1)NCC1(c2ccc(F)cc2)CC1 | 700 s
43 | CCc1nc(-c2ccc3c(c2)CCN3C(=O)Cc2ccc(F)cc2)no1 | 1030 s
44 | O=S(=O)(NCc1cccnc1-c1ccc(F)cc1)c1ccc(Cl)cc1 | 799 s
45 | CC(C)c1ccc(-c2nc3ncccn3c2NCc2ccc(Cl)cc2)cc1 | 936 s
46 | CCn1cc(CCNC(=O)Nc2cc(C)ccc2C)c2cccnc21 | 723 s
47 | Cc1csc(-c2ccc(N3CCN(C(=O)c4ccc(F)c(F)c4)CC3)nc2)n1 | 846 s
48 | O=C([C@@H]1C[C@H](F)CN1C(=O)Nc1cccc(Br)c1)N1CCCCC1 | 753 s
49 | Cc1ccc(C)c(CN2CCCN(c3ncccc3-c3nc(C(C)C)no3)CC2)c1 | 790 s
50 | O=C(Nc1c(F)cccc1F)N1CCC(c2ccccc2)C1 (stereo not drawn) | 767 s
51 | Cc1cc2c(cc(C(=O)NCCc3ccccc3)n2C)s1 | 1040 s
52 | Cc1ccc(F)c(NC(=O)Nc2ccc(-c3cccc4[nH]nc(N)c34)cc2)c1 | 845 s
53 | CCc1nc(NC(=O)C2CC(=O)N(c3n[nH]c4cccc(F)c34)C2)sc1C (stereo not drawn) | 740 s
54 | Cc1ccc(-c2nc3nc4c(c(N5CCCC5)n3n2)CCC4)cc1 | 909 s
55 | CCN1C(=O)c2cc(C(=O)Nc3ccc(C)c(C)c3)nn2CC1(C)C(=O)NC1CCCC1 (stereo not drawn) | 884 s
56 | CCCNc1cc(N2CCCC(CCC(=O)N3CCN(CC(C)C)CC3)C2)ncn1 (stereo not drawn) | 552 s
57 | COc1cccc(CNC(=O)c2ccc3c(c2)nc2n3CCN(Cc3ccccn3)C2=O)c1 | 626 s
58 | O=C1CC2(CCN(S(=O)(=O)c3cc(F)ccc3F)CC2)Oc2ccccc21 | 929 s

Other lines, results leading:

Row | RP-LC retention time | SMILES
59 | 1190 s | O=S(=O)(c1ccc2c(c1)CCCN2)N1CCC[C@H]2CCCC[C@@H]21
60 | 560 s | COc1ccc(NC(=O)N2CC3CN(C)CC(C2)O3)cc1
61 | 822 s | CC(C)NC(=O)c1ccc(OCC2CCN(C(=O)c3ccccc3F)CC2)cc1
62 | 742 s | Cc1oc(-c2[nH]ncc2C(=O)N2CCOCC2)cc1S(=O)(=O)NCC1CCCCC1
63 | 816 s | Cc1cc(-c2ccc(S(=O)(=O)N3CCC(C(=O)NCc4ccccc4C)CC3)o2)n[nH]1
64 | 774 s | Cc1ccc(OCC(=O)N(Cc2ccc(N(C)C)cc2)C2CCS(=O)(=O)C2)cc1C (stereo not drawn)
65 | 1220 s | Cc1ccc(S(=O)(=O)N2CCc3nc(-c4ccc(F)cc4)ncc3C2)c(C)c1
66 | 634 s | COc1cccc(-c2n[nH]c3c2C(c2ccc(O)c(OC)c2)NC3=O)c1 (stereo not drawn)
67 | 1270 s | COc1ccc(-c2cnc(NC(=O)[C@H]3CCCCN3S(=O)(=O)c3ccc(C)cc3)s2)cc1
68 | 946 s | CCc1nc(-c2csc(S(=O)(=O)N3CCCC(C(=O)NCc4ccc(C)o4)C3)c2)no1 (stereo not drawn)
69 | 1010 s | Cc1ccc(C)c(N2CCN(c3ccnc(SCC(=O)Nc4ccc(F)cc4C)n3)CC2)c1
70 | 832 s | CCc1ccc(Nc2cc(C(=O)N3CCC(C)CC3)nc3cc(OC)c(OC)cc23)cc1
71 | 1000 s | COc1ccc(N2CCN(c3cc(SCC(=O)Nc4cccc(SC)c4)ncn3)CC2)cc1
72 | 617 s | CC1CCCCN1CCNC(=O)CN1CCc2ccccc2C1C(=O)N1CCCCC1 (stereo not drawn)
73 | 640 s | O=C(c1ccc(Cl)cc1)N1CCN=C1N1CCCCC1
74 | 709 s | COc1ccc(NC(=O)N2CCC(n3c(-c4ccc(OC)cc4)nc4cccnc43)C2)cc1 (stereo not drawn)
75 | 942 s | CCOc1ccc(N2C(=O)CC(c3ccc(OC)cc3)CC2=O)cc1
76 | 842 s | CCN1C(=O)c2cccnc2Sc2cc(NC(=O)c3ccc(Br)o3)ccc21
77 | 946 s | O=C(Nc1cccc(OCc2nnc(-c3ccc(Cl)cc3)o2)c1)c1cnccn1
78 | 620 s | CCOc1cc2ncc(C#N)c(Nc3ccc(OCc4ccccn4)c(Cl)c3)c2cc1NC(=O)/C=C/CN(C)C
79 | 660 s | Cc1cccc2nnc(N3CCC(C(=O)NCc4ccccc4)CC3)n12
80 | 728 s | O=C(NCC1CCOCC1)Nc1ccc(F)c(Cl)c1
81 | 926 s | N#Cc1cccc(NC(=O)Cn2cccc(-c3nc(-c4ccc(Cl)cc4)no3)c2=O)c1
82 | 770 s | COc1ccc(S(=O)(=O)N2CCN(c3cc(C)nc(NC4CCCCC4)n3)CC2)cc1
83 | 775 s | CCCCNC(=O)C1c2ccccc2C(=O)N(C)C1c1cccs1 (stereo not drawn)
84 | 913 s | N#Cc1cccc(NC(=O)CN2CCc3[nH]c4c(F)c(Cl)ccc4c(=O)c3C2)c1
85 | 775 s | Cc1ccc(-c2nnc(CC(=O)NCC(C)C)o2)cc1
86 | 586 s | Cc1nc2cc(N3CCCC(C(=O)NCc4ccc(N(C)C)cc4)C3)cnc2nc1C (stereo not drawn)
87 | 829 s | COc1ccc(-n2ccnc(NC(=O)Nc3ccccc3)c2=O)cc1OC
88 | 778 s | Nc1nc(NCc2ccccc2Cl)ncc1[N+](=O)[O-]
